Columns and labels:
[1] = system: CB1R; parameters: method as in PMID 20652930; details: read-out: CB1R antagonist activity EC50; cited from earlier work
[2] = system: Wistar rats; test: Acute hypophagic response in 24 h food-deprived rats; format: in vivo, rat; details: for effect on food intake (in words): 2 h; for food intake (control = 100%): 10 mg/kg
Description: As a preliminary screening, the synthesized compounds were evaluated for acute hypophagia in rats and the results are summarized in Fig. 5. Twenty four hour food deprived Wistar rats were given weighed amounts of food pellets after administration of the test compounds. Quantum of food consumed by the control group of animals was considered as 100%.
Male Wistar rats weighing 200–250 g were used in the present study to assess the acute hypophagic response. Animals were housed individually in a plexi-glass cage in a temperature and humidity controlled room with a 12 h light/dark cycle. Standard chow pellets and water were made available ad libitum. Animals were handled daily for a week before performing the actual experiments. The animal study protocol was approved by the Institutional Animal Ethics Committee (IAEC) of Faculty of Pharmacy, The Maharaja Sayajirao University of Baroda (Approval no. MSU/IAEC/2014-15/1401). The experiments were conducted in accordance to the guidelines of CPCSEA (Committee for the Purpose of Control and Supervision of Experiments on Animals), Ministry of Environment & Forests, Govt. of India. We tried our best to reduce the number of animals and their suffering.
The acute effect of the synthesized test compounds on feeding behavior was assessed in 24 h food-deprived animals. Before performing the experiments, the bedding material was removed from the cage. The animals were deprived of feed for 24 h with free access to water. The fasted animals were administered with the test compounds (10 mg/kg, p.o.). After 30 min of administration, weighed amounts of food pellets were served to the animals. Amount of food pellets and food spillage remaining after 2 h were weighed to find out the amount of food consumed by the animals.

[3] = PAMPA-BBB in vitro permeability assay; format: in vitro ADME, porcine; parameters: key to Prediction (penetration in CNS): CNS- indicates low passive CNS permeation; details: for Prediction (penetration in CNS): from PAMPA-BBB Pe, Pe less than 3.8 × 10^−6 cm s^−1 = low BBB permeation; for Papp at 120 min, 100 µg/ml: pig, PAMPA-BBB, porcine brain lipid, PBS/ethanol (70:30), 25 °C, mean ± SEM of three experiments, read-out: Pe
Description: As discussed above, BBB permeation of the available CB1 receptor antagonists limits their therapeutic utility. A successful CB1 receptor antagonist to be used as anti-obesity agent must be devoid of BBB permeability. […] In this study, the ability of the test compounds to cross the BBB was determined by the well established in vitro model PAMPA-BBB assay. This simple and rapid model has the advantage to predict passive BBB permeation with high accuracy[57],[58]. The in vitro permeability (Pe) of the test compounds through the lipid extract of porcine brain was determined in PBS/ethanol (70:30).
To assess the in vivo brain permeability potential of the test compounds, PAMPA assay for BBB was performed as reported by Di. et al.[57]. The donor microplate (polyvinylidene fluoride (PVDF) membrane, diameter 25 mm, pore size 0.45 µm Millipore) and the acceptor microplate were used for the experiment. The acceptor microplate was filled with 200 µl phosphate buffer saline (PBS) and ethanol in the ratio of 70:30 whereas the donor microplate filter surface was impregnated with porcine brain lipid (Avanti Polar Lipids) in dodecane (Sigma) (4 µl of 20 mg/ml). 200 µl of the test compound (100 µg/ml in PBS/ethanol) was added to the donor well. A sandwich was formed by placing the donor plate carefully on the acceptor plate, and the plates were kept undisturbed for 120 min at 25 °C. The donor plate was carefully detached after the incubation period and concentration of the test compound in the acceptor wells was determined using UV spectroscopy. Each sample was analyzed in four wells at five different wavelengths, and at least in three independent runs. Assay validation was performed by using nine commercial quality standard drugs of known BBB permeability[75] in which the reported permeability values of the standards were compared with their experimental permeability values, which gave a linear relationship, Pe(exp.) = 1.171Pe(bibl.) + 1.489 (R^2 = 0.983)[57],[58].

[4] = target: T1, CB1 receptor (Rattus norvegicus, UniProt P20272); test: In vivo CB1 receptor antagonistic activity against WIN-55212-2 hyperphagia; details: 24 h fasted rats, test compound 10 mg/kg p.o., WIN-55212-2 2 mg/kg i.p.
T1 construct: from tissue; host or cells: whole living animal (male Wistar rat); receptor endogenous in central and peripheral tissues
Description: Here also, the quantity of feed consumed by the control group animals was taken as 100%.
In another set of experiments, in vivo CB1 receptor antagonistic activity of the test compounds was assessed.

[5] = parameters: method as in PMID 20664173; details: cited from earlier work
[6] = 24 h fasted male Wistar rats, 10 mg/kg p.o.
[7] = 24 h fasted male Wistar rats, 10 mg/kg p.o., food served after 30 min, intake over 2 h

T1 sequence (P20272 whole entry): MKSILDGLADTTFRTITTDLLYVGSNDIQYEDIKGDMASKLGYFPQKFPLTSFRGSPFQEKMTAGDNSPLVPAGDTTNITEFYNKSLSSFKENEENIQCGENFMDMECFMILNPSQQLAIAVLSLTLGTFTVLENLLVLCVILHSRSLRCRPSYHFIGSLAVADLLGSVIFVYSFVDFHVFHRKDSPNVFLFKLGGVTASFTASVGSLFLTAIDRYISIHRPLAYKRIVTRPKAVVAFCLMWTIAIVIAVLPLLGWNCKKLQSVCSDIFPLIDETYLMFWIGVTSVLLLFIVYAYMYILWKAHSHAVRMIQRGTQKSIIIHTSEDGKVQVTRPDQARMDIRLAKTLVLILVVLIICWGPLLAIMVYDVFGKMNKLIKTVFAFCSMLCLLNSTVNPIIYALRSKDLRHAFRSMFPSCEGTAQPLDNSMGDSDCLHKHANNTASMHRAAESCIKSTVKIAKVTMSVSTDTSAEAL

melting point	Prediction (penetration in CNS) [3]	Papp at 120 min, 100 µg/ml [3]	Compound	EC50 [1]	effect on food intake (in words) [2, 6]	food intake (control = 100%) [2, 7]	food intake (control = 100%) ([2]; po)	effect on hyperphagic effect of WIN-55212-2 (in words) [4]	brain penetration (in words) [5]
104 to 106 °C	CNS-	2.8 ± 0.58 ×10⁻⁶ cm/s	CCOC(=O)c1cnc(SCC(=O)N2c3ccccc3Sc3ccc(OC)cc32)nc1N [Compound 27, Ethyl 4-amino-2-(2-(2-methoxy-10H-phenothiazin-10-yl)-2-oxoethylthio)pyrimidine-5-carboxylate]	–	significant hypophagic activity	19–43%	19%	suppressed the hyperphagic effect of WIN-55212-2	–
225 to 227 °C	CNS-	2.09 ± 0.82 ×10⁻⁶ cm/s	Nn1c(SCC(=O)N2c3ccccc3Sc3ccc(Cl)cc32)nnc1-c1ccncc1 [Compound 34, 2-(4-Amino-5-(4-pyridyl)-4H-1,2,4-triazol-3-ylthio)-1-(2-chloro-10H-phenothiazin-10-yl)ethanone]	–	significant hypophagic activity	–	–	suppressed the hyperphagic effect of WIN-55212-2	–

Continued, molecule first:

Compound	melting point	Prediction (penetration in CNS) [3]	Papp at 120 min, 100 µg/ml [3]	EC50 [1]	effect on food intake (in words) [2, 6]	food intake (control = 100%) [2, 7]	food intake (control = 100%) ([2]; po)	effect on hyperphagic effect of WIN-55212-2 (in words) [4]	brain penetration (in words) [5]
CCc1c(C(=O)NN2CCCCC2)nn(-c2ccc(Cl)cc2Cl)c1-c1ccc(C#Cc2ccc(C(F)(F)F)cc2)s1 [TM38837]	–	–	–	8.5 nM	–	–	–	–	–
COc1ccc2c(c1)N(C(=O)CSc1ncc(C#N)c(N)n1)c1ccccc1S2 [Compound 23, 4-Amino-2-(2-(2-methoxy-10H-phenothiazin-10-yl)-2-oxoethylthio)pyrimidine-5-carbonitrile]	215 to 217 °C	CNS-	3.08 ± 0.16 ×10⁻⁶ cm/s	–	significant hypophagic activity	19–43%	19%	suppressed the hyperphagic effect of WIN-55212-2	–
CCOC(=O)c1cnc(SCC(=O)N2c3ccccc3Sc3ccc(C(F)(F)F)cc32)nc1N [Compound 25, Ethyl 4-amino-2-(2-(2-trifluoromethyl-10H-phenothiazin-10-yl)-2-oxoethylthio)-pyrimidine-5-carboxylate]	148 to 151 °C	CNS-	2.72 ± 0.19 ×10⁻⁶ cm/s	–	significant hypophagic activity	19–43%	37%	suppressed the hyperphagic effect of WIN-55212-2	–
Cc1c(C(=O)NN2CCS(=O)(=O)CC2)nn(-c2ccc(Cl)cc2Cl)c1-c1ccc(C#CCCC#N)cc1 [AM-6545]	–	–	–	–	–	–	–	–	limited brain penetration

— PMC5785958, “New role of phenothiazine derivatives as peripherally acting CB1 receptor antagonizing anti-obesity agents” (Scientific Reports, 2018)
